Experimental data reported in US5306639A, “DNA encoding glucanase enzymes” (priority 1985, dated 1994).
Read-outs that look alike come from different tables or passages of the source.

Experiments:
α-1,3 glucanase I = assay: Effects of metallic ions and enzyme inhibitors on α-1,3 glucanase I; format: biochemical, Bacillus circulans BC-8
Experimental: (§1) Both α-1,3 glucanase I and II are inhibited by Fe^2+, Pb^2+, and […].
(§2) 0.1 ml of α-1,3 glucanase solution was added to 0.2 ml of 1.3-α-D glucan suspension (6 mg/ml, 50 mM phosphate buffer, pH 7.0), and the mixture was incubated for 16 hours at 40° C. The reaction was terminated by adding ethanol (final concentration was 60%), and amount of the sugar which had become soluble in this condition was determined by the phenol sulfuric acid method.
(§3) Under the above-mentioned reaction conditions, the enzyme activity which produced an amount of sugar soluble in 60% ethanol and corresponding to 100 nmol of glucose was defined as one unit. In practice, α-1,3 glucanase solutions of various concentrations were used for developing the standard curve, and the enzyme activity was read out on it.

α-1,3 glucanase II = assay: Effects of metallic ions and enzyme inhibitors on α-1,3 glucanase II; format: biochemical, Bacillus circulans BC-8
Experimental: as §1, §2, §3

dextranase = biological target: T1, dextranase (Arthrobacter sp., UniProt P39652); assay: Effects of metallic ions and enzyme inhibitors on dextranase activity; format: biochemical, Arthrobacter sp. CB-8; conditions: for inhibition of dextranase (in words): summary of Table 6; for activity at 1000 µM: read-out: Relative activity (%) of dextranase
T1 construct: the mature dextranase protein consisting of 591 amino acid residues; endogenous in cells; host or cells: Arthrobacter sp; CB-8 (FERM BP-995), enzyme purified from the culture
T1 sequence (P39652 50-640): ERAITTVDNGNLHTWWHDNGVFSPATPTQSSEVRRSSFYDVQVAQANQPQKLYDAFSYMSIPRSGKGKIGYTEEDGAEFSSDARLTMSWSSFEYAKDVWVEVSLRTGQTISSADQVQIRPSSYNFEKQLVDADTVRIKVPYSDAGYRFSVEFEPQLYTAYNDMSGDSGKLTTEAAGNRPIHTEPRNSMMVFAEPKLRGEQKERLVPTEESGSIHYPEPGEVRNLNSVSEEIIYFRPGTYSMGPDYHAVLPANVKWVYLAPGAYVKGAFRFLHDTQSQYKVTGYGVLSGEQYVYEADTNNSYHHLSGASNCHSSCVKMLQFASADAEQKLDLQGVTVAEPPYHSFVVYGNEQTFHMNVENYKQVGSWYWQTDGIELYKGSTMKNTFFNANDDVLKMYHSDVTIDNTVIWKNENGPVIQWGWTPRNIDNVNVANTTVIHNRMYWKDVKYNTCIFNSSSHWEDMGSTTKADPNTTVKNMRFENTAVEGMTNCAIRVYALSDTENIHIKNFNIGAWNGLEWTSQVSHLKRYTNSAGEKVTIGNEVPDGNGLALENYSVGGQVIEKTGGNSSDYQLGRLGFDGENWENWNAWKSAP
Experimental: 0.1 ml of the enzyme solution is added to 0.9 ml of 50 mM phosphate buffer, pH 6.5, containing 0.555% dextran (molecular weight: 10,000~20,000),and the mixture is incubated at 37° C. for 30 minutes. After the reaction is stopped, the amount of reducing sugar produced is measured by Somogyi-Nelson method. The enzymatic activity which increases a reducing power equivalent to 1 μ mole of glucose per 1 minute was defined as one unit.

[1] = metallic ion or inhibitor 0.1 mM, none = 100
[2] = metallic ion or inhibitor 1 mM, none = 100

SMILES	inhibition of α-1,3 glucanase I enzymatic activity (α-1,3 glucanase I)	inhibition of α-1,3 glucanase II enzymatic activity (α-1,3 glucanase II)	Relative activity (%) of dextranase (dextranase; [2]) [%]	further results
[Cl][Hg][Cl] [HgCl2]	significant inhibition	significant inhibition	–	Relative activity (%) of dextranase (dextranase; [1]): 0%; inhibition of dextranase (in words) (dextranase): significantly inhibited
[Cl-].[K+] [KCl]	–	–	–	Relative activity (%) of dextranase (dextranase; metallic ion or inhibitor 10 mM, none = 100): 113%
O=C(O)CN(CCN(CC(=O)O)CC(=O)O)CC(=O)O [EDTA]	–	–	–	activity at 1000 µM (dextranase): 122%
O=C(O)c1cc[c]([Hg][Cl])cc1 [pCMB, p-chloromercuribenzoic acid]	significant inhibition	significant inhibition	29	inhibition of dextranase (in words) (dextranase): inhibited strongly
[Cl][Fe][Cl] [FeCl2]	inhibited	inhibited	115	–
[Cl][Pb][Cl] [PbCl2]	inhibited	inhibited	103	–
[Cl-].[Na+] [NaCl]	–	–	–	Relative activity (%) of dextranase (dextranase): 100%
[Ca+2].[Cl-].[Cl-] [CaCl2]	–	–	113	–
[Cl][Fe]([Cl])[Cl] [FeCl3]	–	–	104	–
O=[N+]([O-])[O-].[Ag+] [AgNO3]	significant inhibition	significant inhibition	–	Relative activity (%) of dextranase (dextranase; [1]): 0%; inhibition of dextranase (in words) (dextranase): significantly inhibited
c1cnc2c(c1)ccc1cccnc12 [o-Phenanthroline]	–	–	–	activity at 1000 µM (dextranase; [2]): 100%
O=S(=O)([O-])[O-].[Cu+2] [CuSO4]	–	–	–	Relative activity (%) of dextranase (dextranase; [1]): 7%; inhibition of dextranase (in words) (dextranase): significantly inhibited
[Cl-].[Cl-].[Zn+2] [ZnCl2]	–	–	77	–
[Cl][Mn][Cl] [MnCl2]	–	–	77	–
O=S(=O)([O-])[O-].[Mg+2] [MgSO4]	–	–	113	–
